Results taken from patent publication US11491155B2, “Salt of a pyrimido[6,1-A]isoquinolin-4-one compound” (VERONA PHARMA PLC, priority 2015, dated 2022).
Structures can show the parent of a compound that is named as a salt.

Legend:
[1] = Solubility of RPL554 salts in saline solutions, water and aqueous buffer solutions at 25° C. (HPLC); format: physicochemical; conditions: 24 hours; for Solubility as RPL554 (mg/ml) in Water: deionised water
Procedure: The behaviour of salts of RPL554 were examined under the following conditions: • Phosphate buffered to pH 3.5 in saline, 0.9% w/w at 25° C. • Acetate buffered to pH 4.5 in saline, 0.9% w/w at 25° C. • Citro-Phosphate buffered to pH 4.5 in saline, 0.9% w/w at 25° C. • Phosphate buffered to pH 6.5 in saline, 0.9% w/w at 25° C. • Saline, 0.7, 0.9 and 1.1% w/w at 25° C. • Deionised water at 25° C.
RPL554 salts and RPL554, ca 50 mg, were suspended in the various aqueous media, 1 ml, with agitation at the specified temperatures for 24 hours. The solids were isolated and dried in vacuo at 45° C. The retained filtrates were examined by HPLC.
Additional RPL554 methane sulfonate salt, ca 50 mg, was charged to the water mixtures at 25° C. and 37.5° C. in order to afford a suspension. In all other cases, suspensions were obtained.
The solubility of the RPL554 was determined by HPLC using a single point calibration and is expressed as RPL554 and not as the salt and are detailed in Table 6 and Table 7 for the various conditions utilised.

[2] = Intrinsic dissolution of compressed tablet, pH 7.0, 37° C. (Sirius inForm); format: physicochemical; conditions: for mass dissolved: before precipitation; for Mass of salt (μg) dissolved after 2 hours, Average / Mass of salt (μg) dissolved after 2 hours, Test 1 / Mass of salt (μg) dissolved after 2 hours, Test 2: pH 7.0, 0.15 M NaCl, 37° C.
Procedure: The dissolution assay (pH-dependent sample dissolution) was investigated using the Sirius inForm.
Dissolution of a compressed tablet of the compound was monitored in a pH 7.0 aqueous dissolution experiment (0.15 M NaCl) at 37° C. using UV-absorption spectroscopy in 2 hour experiments. A tablet with a diameter of 3 mm, requiring approximate weights of 10 mg was compressed under a weight of 100 kg load force. Only one face of the tablet was exposed to the dissolution medium, which contained a 0.01 M acetate/phosphate buffer system to minimise perturbation of the experimental pH from dissolution of the drug.
Stirring of the solution was continuous and at a constant rate of 100 rpm. The absorption data was converted to absolute sample weights using previously determined, pH-dependent, molar extinction coefficients. An appropriate wavelength range was chosen to ensure that spectroscopic data with an absorption value of <1.3 was analysed, avoiding erroneous dissolution results due to saturation of the UV light source.

[3] = Primary particle size analysis by laser light diffraction (Mastersizer 2000); format: physicochemical; conditions: micronised, mean n=3
Procedure: A Mastersizer 2000 fitted with a Scirocco 2000 dry powder dispersion unit (Malvern Instruments Ltd, UK) was used to analyse the primary particle size of the micronised RPL554 and salt variants. The salts (50 mg) were automatically sampled via a vibrating feed control at a feeder rate of 60% and dispersed in compressed air at a pressure of 3 bar.

[4] = Solubility of RPL554 and salts in pMDI propellant systems; format: physicochemical; conditions: for Estimated RPL554 solubilised (%) / Estimated Solubilised RPL554 μg per 50 μL actuation / Solubility RPL554: in HFA 134 with Ethanol/Tween
Procedure: Quantitative assessment of the solubility of RPL554 and salt variants in the propellant systems of selected pMDI formulations (three replicates of each formulation) was performed. pMDIs were directly coupled to an adaptor fitted with a 0.20 μm filter unit connected, in series to a 21 G needle, which was inserted via a rubber septum, into a cooled multi-dose glass vial. A 19 G filter needle was inserted through the septum to aid evaporation of propellant from the vial. Prior to the filtration process the vial was cooled in a mixture of dry ice and acetone to ensure that the pressure within the vial was reduced in order to facilitate collection of the output from the pMDI. Ten consecutive actuations of the pMDI were fired through the filter and collected in the vial. Between actuations the canister was shaken for approximately 10 seconds. The pMDI unit was weighed before and after the filtering procedure. The filtrate was stored at room temperature and allowed to evaporate to dryness.
Samples were recovered by carefully rinsing the inside of the vials with 1 mL of recovery solution before transfer to HPLC vials for analysis. The estimated % of RPL554 solubilised within the canister was calculated from the starting mass of RPL554 within the canisters, which in turn was calculated using the theoretical molecular weight values of the RPL554 free base and salt variants shown in Table 13. The theoretical molecular weight estimates of the salts were provided by Verona.

[5] = RPL554 content and content uniformity of 1% w/w lactose powder blends; format: physicochemical; conditions: for Measured Blend Content (% Theoretical): 1% w/w RPL554 variant: lactose powder blend, expressed as RPL554 base; for **Adjusted RPL554 Content per capsule: per 20 mg capsule of 1% w/w lactose blend, adjusted for measured blend content (% theoretical), as RPL554 base
Procedure: Batches (approximately 5 g) of 1% w/w RPL554 free base or salt variants: lactose blends were prepared. In brief, the RPL554 free base or salt plus a small quantity of lactose was passed through a 38 μm sieve. The sieved material plus the remaining lactose was mixed in a glass mortar prior to transfer to a stainless steel screw cap jar and further mixing (10 minutes at 46 rpm) conducted using a Turbula blender. The composition of the dry powder blend was 0.05 g API and 4.95 g lactose.
In order to determine the content uniformity of the blends, aliquots (approx. 20 mg) of powder were sampled from each blend, accurately weighed, and diluted to volume in 10 mL volumetric flasks with diluent. The flasks were sonicated for 3 minutes before samples were transferred to HPLC vials for analysis.

[6] = Aerosol performance of DPI formulations (Cyclohaler, NGI); format: physicochemical; conditions: for †Measured Mass of 1% w/w Blend Delivered per capsule / ††RPL554 Emitted (μg) per capsule (B): Cyclohaler; for †Measured Mass of 1% w/w Blend Delivered per capsule: 5 capsules containing 20 mg powder blend, mass from weight change of capsule-loaded device; for ††RPL554 Emitted (μg) per capsule (B): NGI, mass determined from HPLC analysis of recovered samples; for ††RPL554 Emitted (μg) per capsule (B) / Calculated RPL554 Content (μg) per capsule (A): as RPL554 base; for Calculated RPL554 Content (μg) per capsule (A): calculated from delivered blend mass and measured blend content
Procedure: Capsules were hand filled with 20 mg of the 1% w/w RPL554 free base or salt variants: lactose blends, i.e. 200 μg salt per capsule, the fill weight of each capsule was recorded. Due to differences in the molecular weights of the RPL554 salt forms, the amount of RPL554 emitted per actuation varied as a function of molecular weight. The formulations were prepared with no adjustment for differences in molecular weight of the salts.
The powders were delivered via the Cyclohaler® DPI (PCH Pharmachemie, BV, The Netherlands). The Cyclohaler® DPI is a low resistance device and was operated at a flow rate of 90 L/min for 2.7 seconds. The cut off diameters for the NGI collection stages were calculated for the 90 L/min flow rate using the NGI User Guide (MSP Corporation, 2008).
The ED, FPD and FPF were determined from inertial impaction tests performed following the deposition of 5 capsules of each formulation into the NGI. For each capsule tested the combined weight of the Cyclohaler® and capsule was determined before and after operation to check that the dose had been delivered. The NGI was fitted with a pre-separator for these determinations. The central cup of the pre-separator was filled with 15 mL of diluent. Following deposition, the solution was recovered in a 20 mL volumetric flask and made up to volume with diluent. RPL554 was quantitatively recovered from the device, induction port and each of the NGI collection stages with 10 mL of diluent.
The volume of diluent used for each sample was selected to ensure RPL554 concentrations were above the limit of quantitation.

[7] = Physico-chemical characteristics of salt candidates: solubility in water, pH of aqueous suspension/solution, form post water maturation
Procedure: The physico-chemical characteristics of the salt candidates were determined.

[8] = listed as methanesulfonate salt
[9] = listed as hydrobromide salt, hydrobromide

SMILES: COc1cc2c(cc1OC)-c1c/c(=N\c3c(C)cc(C)cc3C)n(CCNC(N)=O)c(=O)n1CC2 [Methanesulfonate, RPL554 methanesulfonate]
- Solubility as RPL554 (mg/ml) in 0.7 w/w % Saline [1]: 5.01 mg/mL
- Solubility as RPL554 (mg/ml) in 0.9 w/w % Saline [1]: 3.73 mg/mL
- Solubility as RPL554 (mg/ml) in 1.1 w/w % Saline [1]: 2.52 mg/mL
- Solubility as RPL554 (mg/ml) in Water [1]: 44.52 mg/mL
- dissolution compared with free base / other salts ([2]; 2 hour experiments): higher dissolution than the rest of the salts
- mass dissolved ([2]; at 8.5 min): 3960 µg
- mass dissolved ([2]; at 11 min): 5200 µg
- maximum pH change (decrease) during dissolution ([2]; nominal start pH 7): about 0.1 pH units
- Mass of salt (μg) dissolved after 2 hours, Average [2, 8]: 225 µg
- Mass of salt (μg) dissolved after 2 hours, Test 1 [2, 8]: 160 µg
- Mass of salt (μg) dissolved after 2 hours, Test 2 [2, 8]: 290 µg
- D (0.1) (μm) [3]: 0.45 μm
- D (0.5) (μm) [3]: 1.20 μm
- D (0.9) (μm) [3]: 3.46 μm
- Calculated RPL554 solubilised (%) ([4]; in HFA 134): BLQ
- Calculated Solubilised RPL554 μg per 50 μL actuation ([4]; in HFA 134): BLQ
- Solubility RPL554 (μg/g) ([4]; in HFA 134, BLQ = below limit of quantitation (0.06 μg/mL)): BLQ
- Estimated RPL554 solubilised (%) [4]: 11.64%
- Estimated Solubilised RPL554 μg per 50 μL actuation [4]: 19.38 µg
- Solubility RPL554 [4]: 298.07 µg/g
- Solubility RPL554 ([4]; listed as methanesulfonate): 298 µg/g
- Calculated RPL554 solubilised (%) ([4]; in HFA 227): BLQ
- Calculated Solubilised RPL554 μg per 50 μL actuation ([4]; in HFA 227): BLQ
- Solubility RPL554 (μg/g) ([4]; in HFA 227): BLQ
- Measured Blend Content (% Theoretical) [5]: 99.13 % Theoretical
- **Adjusted RPL554 Content per capsule [5]: 165.05 µg
- †Measured Mass of 1% w/w Blend Delivered per capsule [6]: 19.96 mg
- ††RPL554 Emitted (μg) per capsule (B) [6]: 118.69 µg
- Calculated RPL554 Content (μg) per capsule (A) [6]: 164.72 µg
- pH of aqueous suspension/solution ([7]; listed as Methane sulfonic): 2.69

SMILES: COc1cc2c(cc1OC)-c1c/c(=N\c3c(C)cc(C)cc3C)n(CCNC(N)=O)c(=O)n1CC2 [Hydrobromide, RPL554 hydrobromide]
- Solubility as RPL554 (mg/ml) in 0.7 w/w % Saline ([1]; hydrobromide): 0.95 mg/mL
- Solubility as RPL554 (mg/ml) in 0.9 w/w % Saline ([1]; hydrobromide): 0.82 mg/mL
- Solubility as RPL554 (mg/ml) in 1.1 w/w % Saline ([1]; hydrobromide): 0.66 mg/mL
- Solubility as RPL554 (mg/ml) in Water ([1]; hydrobromide): 3.43 mg/mL
- Mass of salt (μg) dissolved after 2 hours, Average [2, 9]: 35.3 µg
- Mass of salt (μg) dissolved after 2 hours, Test 1 [2, 9]: 30.4 µg
- Mass of salt (μg) dissolved after 2 hours, Test 2 [2, 9]: 40.1 µg
- D (0.1) (μm) ([3]; hydrobromide): 0.64 μm
- D (0.5) (μm) ([3]; hydrobromide): 1.52 μm
- D (0.9) (μm) ([3]; hydrobromide): 3.23 μm
- Solubility RPL554 (μg/g) ([4]; in HFA 134, BLQ = below limit of quantitation (0.06 μg/mL), hydrobromide): BLQ
- Calculated RPL554 solubilised (%) ([4]; in HFA 134, hydrobromide): BLQ
- Calculated Solubilised RPL554 μg per 50 μL actuation ([4]; in HFA 134, hydrobromide): BLQ
- Estimated RPL554 solubilised (%) ([4]; hydrobromide): 3.74%
- Estimated Solubilised RPL554 μg per 50 μL actuation ([4]; hydrobromide): 6.40 µg
- Solubility RPL554 ([4]; hydrobromide): 96.27 µg/g
- Measured Blend Content (% Theoretical) ([5]; hydrobromide): 83.37 % Theoretical
- **Adjusted RPL554 Content per capsule ([5]; hydrobromide): 142.58 µg
- †Measured Mass of 1% w/w Blend Delivered per capsule ([6]; hydrobromide): 19.96 mg
- ††RPL554 Emitted (μg) per capsule (B) ([6]; hydrobromide): 104.28 µg
- Calculated RPL554 Content (μg) per capsule (A) ([6]; hydrobromide): 142.29 µg
- pH of aqueous suspension/solution ([7]; listed as HBr, hydrobromide): 3.20
